# Legend:
# [1] = cited from earlier work
# [2] = system: dopamine transporter protein over the norepinephrine transporter protein; conditions: selectivity for dopamine transporter over norepinephrine transporter; cited from earlier work
smiles,measurement,setting,value
CN1Cc2cc(-c3ccoc3)ccc2C(c2ccccc2)C1 (stereo not drawn),melting point,,188 to 189 °C (dec.)
CN1Cc2c(N)cccc2C(c2ccccc2)C1 (stereo not drawn) [Nomofensine],side effect of long term administration,[1],fatal immune hemolytic anemia
COC(=O)C(c1ccccc1)C1CCCCN1 (stereo not drawn) [Methylphenidate],DAT/NET Ki ratio,[2],0.1

# Reference: patent publication US7265116B2, “Aryl and heteroaryl substituted tetrahydroisoquinolines and use thereof” (ARM Technology, Inc., priority 1999, dated 2007)
